Test results reported in patent US20250340557A1, “PYRIMIDINE DERIVATIVE” (ASKA PHARMACEUTICAL CO., LTD., priority 2022, published 2025).

Molecular target: T1, human mPGES-1 (Homo sapiens, UniProt O14684)
T1 construct: made in house; host or cells: COS-1 cells (transient transfection; microsomal fraction used as enzyme)
T1 sequence (O14684 1-152): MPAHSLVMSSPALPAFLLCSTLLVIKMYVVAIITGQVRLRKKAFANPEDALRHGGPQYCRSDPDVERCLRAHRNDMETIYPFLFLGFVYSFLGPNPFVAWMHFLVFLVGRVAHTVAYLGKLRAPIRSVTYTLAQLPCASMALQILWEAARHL
Experiment: Test for mPGES-1 inhibitory activity (microsomal enzyme, PGE2 EIA)
Format: biochemical
Settings: microsomes from COS-1 cells transfected with human mPGES-1 cDNA; substrate PGH2 1 μM; 4° C., 4 minutes; PGE2 measured by EIA; read-out: h mPGES1 IC50
Description: Test Example 1: Test for mPGES-1 Inhibitory Activity
Microsomes were prepared from COS-1 cells transiently transfected with a plasmid containing human mPGES-1 cDNA, and used as mPGES-1 enzyme. The mPGES-1 enzyme was diluted with a sodium phosphate buffer (pH 7.2) containing reduced glutathione (2.5 mM) and EDTA (1 mM), DMSO or a DMSO solution of a test compound (final concentration of DMSO was 2%) was added to the enzyme, and the mixture was preincubated at 4° C. for 15 minutes. Then, PGH2 (Prostaglandin H2) as the substrate was added at a final concentration of 1 μM to start the enzymatic reaction, and after incubation at 4° C. for 4 minutes, a solution of ferric chloride (25 mM) and citric acid (50 mM) was added to terminate the enzymatic reaction. Generated PGE2 (Prostaglandin E2) was measured by using Prostaglandin E2 Express EIA Kit (Cayman Chemical). IC50 values were determined by using a standard method.

IC50 [nM] | SMILES
< 1 | O=C(NCc1ccc(C(F)(F)F)c(-c2nc(C(F)(F)F)cc(=O)[nH]2)c1F)C1CCN(c2ncc(Cl)cc2Cl)CC1 [Example 30, 1-(3,5-dichloropyridin-2-yl)-N-{2-fluoro-3-[6-oxo-4-(trifluoromethyl)-1,6-dihydropyrimidin-2-yl]-4-(trifluoromethyl)benzyl}piperidine-4-carboxamide]
14 | Cc1nc(-c2c(C(F)(F)F)ccc(CNC(=O)C3CCN(c4ccc(C(F)(F)F)cn4)CC3)c2F)[nH]c(=O)c1F [Example 33, N-[2-fluoro-3-(5-fluoro-4-methyl-6-oxo-1,6-dihydropyrimidin-2-yl)-4-(trifluoromethyl)benzyl]-1-[5-(trifluoromethyl)pyridin-2-yl]piperidine-4-carboxamide]
18 | O=C(NCc1ccc(C(F)(F)F)c(-c2nc(C(F)(F)F)cc(=O)[nH]2)c1F)C1CCN(c2ncc(Cl)cc2F)CC1 [Example 37, 1-(5-chloro-3-fluoropyridin-2-yl)-N-{2-fluoro-3-[6-oxo-4-(trifluoromethyl)-1,6-dihydropyrimidin-2-yl]-4-(trifluoromethyl)benzyl}piperidine-4-carboxamide]
< 1 | Cc1nc(-c2c(C(F)(F)F)ccc(CNC(=O)C3CCN(c4ncc(Cl)cc4Cl)CC3)c2F)[nH]c(=O)c1F [Example 44, 1-(3,5-dichloropyridin-2-yl)-N-[2-fluoro-3-(5-fluoro-4-methyl-6-oxo-1,6-dihydropyrimidin-2-yl)-4-(trifluoromethyl)benzyl]piperidine-4-carboxamide]
15 | O=C(NCc1ccc(C(F)(F)F)c(-c2nc(C(F)F)cc(=O)[nH]2)c1F)C1CCN(c2ncc(Cl)cc2Cl)CC1 [Example 45, 1-(3,5-dichloropyridin-2-yl)-N-{3-[4-(difluoromethyl)-6-oxo-1,6-dihydropyrimidin-2-yl]-2-fluoro-4-(trifluoromethyl)benzyl}piperidine-4-carboxamide]
49 | Cc1cc(=O)[nH]c(-c2c(C(F)(F)F)ccc(CNC(=O)C3CCN(c4ncc(Cl)cc4Cl)CC3)c2F)n1 [Example 46, 1-(3,5-dichloropyridin-2-yl)-N-[2-fluoro-3-(4-methyl-6-oxo-1,6-dihydropyrimidin-2-yl)-4-(trifluoromethyl)benzyl]piperidine-4-carboxamide]
< 1 | Cc1nc(-c2c(C(F)(F)F)ccc(CNC(=O)C3CCN(c4ncc(C(F)(F)F)cc4F)CC3)c2F)[nH]c(=O)c1F [Example 48, N-[2-fluoro-3-(5-fluoro-4-methyl-6-oxo-1,6-dihydropyrimidin-2-yl)-4-(trifluoromethyl)benzyl]-1-[3-fluoro-5-(trifluoromethyl)pyridin-2-yl]piperidine-4-carboxamide]
21 | Cc1cc(=O)[nH]c(-c2c(C(F)(F)F)ccc(CNC(=O)C3CCN(c4ncc(C(F)(F)F)cc4F)CC3)c2F)n1 [Example 49, N-[2-fluoro-3-(4-methyl-6-oxo-1,6-dihydropyrimidin-2-yl)-4-(trifluoromethyl)benzyl]-1-[3-fluoro-5-(trifluoromethyl)pyridin-2-yl]piperidine-4-carboxamide]

Further lines, the compound ahead of its results:

SMILES | IC50 [nM]
O=C(NCc1ccc(C(F)(F)F)c(-c2nc(C(F)(F)F)cc(=O)[nH]2)c1F)C1CN(c2cccc(C(F)(F)F)n2)C1 [Example 26, N-{2-fluoro-3-[6-oxo-4-(trifluoromethyl)-1,6-dihydropyrimidin-2-yl]-4-(trifluoromethyl)benzyl}-1-[6-(trifluoromethyl)pyridin-2-yl]azetidine-3-carboxamide] | 4.1
O=C(NCc1ccc(C(F)(F)F)c(-c2nc(C(F)(F)F)cc(=O)[nH]2)c1F)C1CCN(c2ccc(Cl)cn2)CC1 [Example 27, 1-(5-chloropyridin-2-yl)-N-{2-fluoro-3-[6-oxo-4-(trifluoromethyl)-1,6-dihydropyrimidin-2-yl]-4-(trifluoromethyl)benzyl}piperidine-4-carboxamide] | < 1
O=C(NCc1ccc(C(F)(F)F)c(-c2nccc(=O)[nH]2)c1F)C1CCN(c2ccc(C(F)(F)F)cn2)CC1 [Example 28, N-[2-fluoro-3-(6-oxo-1,6-dihydropyrimidin-2-yl)-4-(trifluoromethyl)benzyl]-1-[5-(trifluoromethyl)pyridin-2-yl]piperidine-4-carboxamide] | < 1
O=C(NCc1ccc(C(F)(F)F)c(-c2nc(C(F)F)cc(=O)[nH]2)c1F)C1CCN(c2ccc(C(F)(F)F)cn2)CC1 [Example 29, N-{3-[4-(difluoromethyl)-6-oxo-1,6-dihydropyrimidin-2-yl]-2-fluoro-4-(trifluoromethyl)benzyl}-1-[5-(trifluoromethyl)pyridin-2-yl]piperidine-4-carboxamide] | 11
Cc1cccc2ccc(N3CCC(C(=O)NCc4ccc(Cl)c(-c5nc(C(F)(F)F)cc(=O)[nH]5)c4F)CC3)nc12 [Example 31, N-{4-chloro-2-fluoro-3-[6-oxo-4-(trifluoromethyl)-1,6-dihydropyrimidin-2-yl]benzyl}-1-(8-methylquinolin-2-yl)piperidine-4-carboxamide] | < 1
O=C(NCc1ccc(Cl)c(-c2nc(C(F)(F)F)cc(=O)[nH]2)c1F)C1CCN(c2ccc(C(F)(F)F)cn2)CC1 [Example 32, N-{4-chloro-2-fluoro-3-[6-oxo-4-(trifluoromethyl)-1,6-dihydropyrimidin-2-yl]benzyl}-1-[5-(trifluoromethyl)pyridin-2-yl]piperidine-4-carboxamide] | < 1
Cc1cc(=O)[nH]c(-c2c(C(F)(F)F)ccc(CNC(=O)C3CCN(c4ccc(C(F)(F)F)cn4)CC3)c2F)n1 [Example 34, N-[2-fluoro-3-(4-methyl-6-oxo-1,6-dihydropyrimidin-2-yl)-4-(trifluoromethyl)benzyl]-1-[5-(trifluoromethyl)pyridin-2-yl]piperidine-4-carboxamide] | < 1
Cc1nc(-c2c(C(F)(F)F)ccc(CNC(=O)C3CCN(c4ccc(C(F)(F)F)cn4)CC3)c2F)[nH]c(=O)c1C [Example 35, N-[3-(4,5-dimethyl-6-oxo-1,6-dihydropyrimidin-2-yl)-2-fluoro-4-(trifluoromethyl)benzyl]-1-[5-(trifluoromethyl)pyridin-2-yl]piperidine-4-carboxamide] | 11
O=C(NCc1ccc(C(F)(F)F)c(-c2nc(C(F)(F)F)cc(=O)[nH]2)c1F)C1CCN(c2cnc(C(F)(F)F)cn2)CC1 [Example 36, N-{2-fluoro-3-[6-oxo-4-(trifluoromethyl)-1,6-dihydropyrimidin-2-yl]-4-(trifluoromethyl)benzyl}-1-[5-(trifluoromethyl)pyrazin-2-yl]piperidine-4-carboxamide] | 14
O=C(NCc1ccc(C(F)(F)F)c(-c2nc(C(F)(F)F)cc(=O)[nH]2)c1F)C1(F)CCN(c2ccc(C(F)(F)F)cn2)CC1 [Example 38, 4-fluoro-N-{2-fluoro-3-[6-oxo-4-(trifluoromethyl)-1,6-dihydropyrimidin-2-yl]-4-(trifluoromethyl)benzyl}-1-[5-(trifluoromethyl)pyridin-2-yl]piperidine-4-carboxamide] | 7.8
O=C(NCc1ccc(C(F)(F)F)c(-c2nc(C(F)(F)F)cc(=O)[nH]2)c1F)C1CCN(c2ncc(C(F)(F)F)cc2F)CC1 [Example 39, N-{2-fluoro-3-[6-oxo-4-(trifluoromethyl)-1,6-dihydropyrimidin-2-yl]-4-(trifluoromethyl)benzyl}-1-[3-fluoro-5-(trifluoromethyl)pyridin-2-yl]piperidine-4-carboxamide] | < 1
O=C(NCc1ccc(C(F)(F)F)c(-c2nc(C(F)(F)F)cc(=O)[nH]2)c1F)C1CCN(c2ccc(OC(F)(F)F)cn2)CC1 [Example 40, N-{2-fluoro-3-[6-oxo-4-(trifluoromethyl)-1,6-dihydropyrimidin-2-yl]-4-(trifluoromethyl)benzyl}-1-[5-(trifluoromethoxy)pyridin-2-yl]piperidine-4-carboxamide] | 15
O=C(NCc1ccc(C(F)(F)F)c(-c2nc3c(c(=O)[nH]2)CCC3)c1F)C1CCN(c2ccc(C(F)(F)F)cn2)CC1 [Example 41, N-[2-fluoro-3-(4-oxo-4,5,6,7-tetrahydro-3H-cyclopenta[d]pyrimidin-2-yl)-4-(trifluoromethyl)benzyl]-1-[5-(trifluoromethyl)pyridin-2-yl]piperidine-4-carboxamide] | 26
CCc1nc(-c2c(C(F)(F)F)ccc(CNC(=O)C3CCN(c4ccc(C(F)(F)F)cn4)CC3)c2F)[nH]c(=O)c1F [Example 42, N-[3-(4-ethyl-5-fluoro-6-oxo-1,6-dihydropyrimidin-2-yl)-2-fluoro-4-(trifluoromethyl)benzyl]-1-[5-(trifluoromethyl)pyridin-2-yl]piperidine-4-carboxamide] | < 1
O=C(NCc1ccc(C(F)(F)F)c(-c2nc(C(F)(F)F)cc(=O)[nH]2)c1)C1CCN(c2ccc(C(F)(F)F)cn2)CC1 [Example 50, N-{3-[6-oxo-4-(trifluoromethyl)-1,6-dihydropyrimidin-2-yl]-4-(trifluoromethyl)benzyl}-1-[5-(trifluoromethyl)pyridin-2-yl]piperidine-4-carboxamide] | < 1
